Entries after “also recorded” stand apart in the source; their conditions may differ. Structures can show the parent of a compound that is named as a salt.

In experiment [1] the target is T1, maltose-trehalose converting enzyme derived from Pimelobacter sp. R48 (Pimelobacter sp., UniProt P72235).
T1 construct: The culture obtained in Experiment 1 was centrifuged to obtain an about 0.5 kg wet cells; endogenous in cells; host or cells: Pimelobacter sp; R48 (FERM BP-4315), enzyme purified from the disrupted wild-type cells
T1 sequence (P72235 1-573): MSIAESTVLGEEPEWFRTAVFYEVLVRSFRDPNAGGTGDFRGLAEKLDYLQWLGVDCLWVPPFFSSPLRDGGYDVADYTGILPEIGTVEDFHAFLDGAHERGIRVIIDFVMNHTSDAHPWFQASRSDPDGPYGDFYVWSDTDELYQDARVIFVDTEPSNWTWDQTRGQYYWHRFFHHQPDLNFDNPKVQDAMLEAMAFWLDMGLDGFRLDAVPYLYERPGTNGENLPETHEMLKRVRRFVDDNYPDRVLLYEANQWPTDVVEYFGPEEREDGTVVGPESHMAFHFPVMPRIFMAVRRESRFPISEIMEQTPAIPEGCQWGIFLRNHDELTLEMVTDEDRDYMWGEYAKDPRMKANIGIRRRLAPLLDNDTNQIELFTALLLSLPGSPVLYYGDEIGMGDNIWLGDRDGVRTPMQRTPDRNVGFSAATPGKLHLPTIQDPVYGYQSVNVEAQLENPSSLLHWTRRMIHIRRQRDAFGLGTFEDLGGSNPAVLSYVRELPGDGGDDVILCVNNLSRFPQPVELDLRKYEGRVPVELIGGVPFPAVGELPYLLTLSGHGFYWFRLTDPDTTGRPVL
The experiment is described as follows: Inhibition of enzyme activity. Type of experiment: biochemical. The conditions noted are these: one mM Cu^++ or Hg^++, 50 mM Tris-HCl buffer. As to the method: (§1) The activity of the present maltose-trehalose converting enzyme is assayed as follows: One ml of an enzyme solution is added to one ml of 20 w/v % maltose as a substrate in 10 mM phosphate buffer (pH 7.0), and the mixture solution is incubated at 25° C., 35° C. or 60° C. for 60 min, followed by the heating the solution at 100° C. for 10 min to suspend the enzymatic reaction. To the resultant reaction mixture is precisely diluted by 11-fold with 50 mM phosphate buffer (pH 7.5), and 0.4 ml of the diluted solution is admixed with 0.1 ml of a trehalase solution having one unit/ml of trehalase. The resultant solution is incubated at 45° C. for 120 min, followed by determining the amount of glucose by the glucose-oxidase method. As a control, by using trehalase and an enzyme solution, which were preheated at 100° C. for 10 min to inactivate the enzyme, the activity of the enzyme solution is assayed similarly as above. With the above assay, the content of trehalose, formed by the present maltose-trehalose converting enzyme, is determined based on the amount of glucose formed, and one unit activity of the enzyme is defined as the amount of enzyme which forms one μmole of trehalose per minute. As regards to the reaction temperature, it is set to 25° C. for the enzyme of a microorganism of the genus Pimelobacter; 35° C. for that of the genus Pseudomonas; and 60° C. for that of the genus Thermus.
Effects of temperature and pH on the activity of the present enzyme were studied in accordance with the method as used for assaying the enzyme activity. […] The thermal stability of the enzyme was determined by incubating it in 50 mM phosphate buffers (pH 7.0) in test tubes at different temperatures for 60 min, cooling the test tubes with cold water, and assaying the residual enzyme activity in each buffer. The pH stability of the enzyme was determined by incubating it in 50 mM phosphate buffers having different pHs at 20° C. for 60 min, adjusting the buffers to pH 7.0, and assaying the residual enzyme activity in each buffer.

In experiment [2] the target is maltose-trehalose converting enzyme derived from Pseudomonas putida H262 (Pseudomonas putida, UniProt Q88FN0). The experiment is described as follows: Inhibition of enzyme activity. The conditions noted are these: one mM Cu^++ or Hg^++, 50 mM Tris-HCl buffer. Type of experiment: biochemical. As to the method:
as §1, with “The resultant solution is incubated at 45° C. for 120 min, followed by determining the amount of glucose by the glucose-oxidase method.” left out, “With the above assay, the content of trehalose, formed by the present maltose-trehalose converting enzyme, is determined based on the amount of glucose formed, and one unit activity of the enzyme is defined as the amount of enzyme which forms one μmole of trehalose per minute.” left out
Effects of temperature and pH on the activity of the present enzyme were studied in accordance with the method as used for assaying the enzyme activity. The results were respectively shown in FIG. 5 (effect of temperature) and FIG. 6 (effect of pH). The optimum temperature of the enzyme was about […] when incubated at pH 7.0 for 60 min and the optimum pH was about 7.3-8.3 when incubated at 35° C. for 60 min. The thermal stability of the enzyme was determined by incubating it in containers with 50 mM phosphate buffers (pH 7.0) at different temperatures for 60 min, cooling the resultant buffers in the containers with cold water, and assaying the residual enzyme activity in each buffer. The pH stability of the enzyme was determined by incubating it in 50 mM phosphate buffers having different pHs at 35° C. for 60 min, adjusting the resultant buffers to pH 7.0, and assaying the residual enzyme activity in each buffer. The enzyme was stable up to a temperature of about 40° C. and stable at a pH of about 6.0-9.5. […]

Sequence of maltose-trehalose converting enzyme derived from Pseudomonas putida H262 (Q88FN0 entry or part of it): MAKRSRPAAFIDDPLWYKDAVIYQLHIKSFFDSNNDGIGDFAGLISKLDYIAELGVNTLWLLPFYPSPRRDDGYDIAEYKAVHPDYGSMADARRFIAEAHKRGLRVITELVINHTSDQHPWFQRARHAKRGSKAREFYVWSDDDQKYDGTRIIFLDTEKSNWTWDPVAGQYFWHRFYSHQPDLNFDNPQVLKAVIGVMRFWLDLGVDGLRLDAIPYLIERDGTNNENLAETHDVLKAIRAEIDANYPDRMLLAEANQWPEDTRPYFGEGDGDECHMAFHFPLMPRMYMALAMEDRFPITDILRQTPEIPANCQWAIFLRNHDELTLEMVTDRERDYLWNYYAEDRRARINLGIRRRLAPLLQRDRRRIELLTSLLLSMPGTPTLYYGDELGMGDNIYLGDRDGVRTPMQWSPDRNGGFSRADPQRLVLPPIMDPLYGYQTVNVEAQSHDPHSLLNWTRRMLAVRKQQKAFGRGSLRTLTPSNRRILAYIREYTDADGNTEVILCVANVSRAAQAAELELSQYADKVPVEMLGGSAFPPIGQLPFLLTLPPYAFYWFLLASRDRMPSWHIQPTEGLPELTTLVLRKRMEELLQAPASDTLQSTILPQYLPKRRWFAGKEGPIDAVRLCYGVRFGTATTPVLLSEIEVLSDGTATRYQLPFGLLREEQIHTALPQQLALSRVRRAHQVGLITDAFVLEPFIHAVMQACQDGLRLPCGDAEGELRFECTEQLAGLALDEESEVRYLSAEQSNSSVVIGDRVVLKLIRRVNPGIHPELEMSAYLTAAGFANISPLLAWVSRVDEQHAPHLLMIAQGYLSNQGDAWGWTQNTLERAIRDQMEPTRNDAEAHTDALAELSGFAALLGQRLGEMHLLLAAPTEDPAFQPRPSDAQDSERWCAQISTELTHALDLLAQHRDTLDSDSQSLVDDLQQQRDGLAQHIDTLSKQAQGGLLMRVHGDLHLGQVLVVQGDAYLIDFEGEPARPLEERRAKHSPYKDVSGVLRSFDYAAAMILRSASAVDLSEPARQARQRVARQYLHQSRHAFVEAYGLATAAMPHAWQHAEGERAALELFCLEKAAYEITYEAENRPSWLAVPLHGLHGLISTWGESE

Consider `[Hg+2]` [Hg^++], for which the Inhibition of activity result in experiment [1] and in experiment [2] was “inhibited; also recorded: inhibitory” throughout.

Take `[Cu+2]` [Cu^++]: the Inhibition of activity entry in experiment [1] and in experiment [2] was “inhibited; also recorded: inhibitory” each time.

Turning to `NC(CO)(CO)CO` [Tris-HCl buffer], the Inhibition of activity entry in experiment [1] and in experiment [2] was “inhibited; also recorded: inhibitory” each time.

The values are drawn from US5736380A, “Maltose-trehalose converting enzyme, and preparation and uses thereof” (Kabushiki Kaisha Hayashibara Seibutsu Kagaku Kenkyujo, priority 1993, dated 1998).
